Columns and labels:
Assay in all cases: Kinase panel (mobility shift)
Type in all cases: biochemical
EPH-B2 = target: T1, EPH-B2 (Homo sapiens, UniProt P29323); conditions: at 5 um
T1 sequence (P29323 19-1055): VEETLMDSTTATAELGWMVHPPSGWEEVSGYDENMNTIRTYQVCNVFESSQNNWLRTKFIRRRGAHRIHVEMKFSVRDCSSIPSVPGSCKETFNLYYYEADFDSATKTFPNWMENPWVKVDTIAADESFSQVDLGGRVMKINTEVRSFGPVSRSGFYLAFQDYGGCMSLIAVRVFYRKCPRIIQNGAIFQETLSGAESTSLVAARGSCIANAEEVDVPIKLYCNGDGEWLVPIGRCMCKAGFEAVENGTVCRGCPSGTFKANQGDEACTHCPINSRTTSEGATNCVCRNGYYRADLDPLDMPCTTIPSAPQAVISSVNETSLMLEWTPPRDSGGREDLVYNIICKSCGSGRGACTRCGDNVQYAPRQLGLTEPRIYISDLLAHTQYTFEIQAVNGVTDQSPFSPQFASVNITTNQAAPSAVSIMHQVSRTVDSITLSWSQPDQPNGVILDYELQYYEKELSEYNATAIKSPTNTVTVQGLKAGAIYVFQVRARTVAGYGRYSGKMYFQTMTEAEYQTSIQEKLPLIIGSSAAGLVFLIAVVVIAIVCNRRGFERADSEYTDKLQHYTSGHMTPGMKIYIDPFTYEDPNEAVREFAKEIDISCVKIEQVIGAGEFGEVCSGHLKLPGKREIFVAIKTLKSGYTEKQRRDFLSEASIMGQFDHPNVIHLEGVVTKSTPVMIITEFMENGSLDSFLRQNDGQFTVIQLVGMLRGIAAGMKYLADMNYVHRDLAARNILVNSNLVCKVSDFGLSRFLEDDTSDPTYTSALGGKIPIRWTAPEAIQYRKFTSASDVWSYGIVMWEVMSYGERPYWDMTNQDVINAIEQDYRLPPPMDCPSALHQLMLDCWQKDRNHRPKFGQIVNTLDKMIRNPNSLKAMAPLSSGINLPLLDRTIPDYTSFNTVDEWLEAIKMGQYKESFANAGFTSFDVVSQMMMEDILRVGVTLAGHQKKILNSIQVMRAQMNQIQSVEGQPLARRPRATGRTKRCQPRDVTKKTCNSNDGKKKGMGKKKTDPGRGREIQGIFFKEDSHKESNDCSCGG
How it was run: (§1)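 Compound at 5 um + kinase + fluor-labeled substrate, standardized mix; rxn stopped; electrophoretic separation of product/substrate on chip; activity = product vs substrate peak fluorescence. Bins A ≥95%, B 90-94%, C 80-89%.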

EPH-B4 = target: T2, EPH-B4 (Homo sapiens, UniProt P54760)
T2 sequence (P54760 16-987): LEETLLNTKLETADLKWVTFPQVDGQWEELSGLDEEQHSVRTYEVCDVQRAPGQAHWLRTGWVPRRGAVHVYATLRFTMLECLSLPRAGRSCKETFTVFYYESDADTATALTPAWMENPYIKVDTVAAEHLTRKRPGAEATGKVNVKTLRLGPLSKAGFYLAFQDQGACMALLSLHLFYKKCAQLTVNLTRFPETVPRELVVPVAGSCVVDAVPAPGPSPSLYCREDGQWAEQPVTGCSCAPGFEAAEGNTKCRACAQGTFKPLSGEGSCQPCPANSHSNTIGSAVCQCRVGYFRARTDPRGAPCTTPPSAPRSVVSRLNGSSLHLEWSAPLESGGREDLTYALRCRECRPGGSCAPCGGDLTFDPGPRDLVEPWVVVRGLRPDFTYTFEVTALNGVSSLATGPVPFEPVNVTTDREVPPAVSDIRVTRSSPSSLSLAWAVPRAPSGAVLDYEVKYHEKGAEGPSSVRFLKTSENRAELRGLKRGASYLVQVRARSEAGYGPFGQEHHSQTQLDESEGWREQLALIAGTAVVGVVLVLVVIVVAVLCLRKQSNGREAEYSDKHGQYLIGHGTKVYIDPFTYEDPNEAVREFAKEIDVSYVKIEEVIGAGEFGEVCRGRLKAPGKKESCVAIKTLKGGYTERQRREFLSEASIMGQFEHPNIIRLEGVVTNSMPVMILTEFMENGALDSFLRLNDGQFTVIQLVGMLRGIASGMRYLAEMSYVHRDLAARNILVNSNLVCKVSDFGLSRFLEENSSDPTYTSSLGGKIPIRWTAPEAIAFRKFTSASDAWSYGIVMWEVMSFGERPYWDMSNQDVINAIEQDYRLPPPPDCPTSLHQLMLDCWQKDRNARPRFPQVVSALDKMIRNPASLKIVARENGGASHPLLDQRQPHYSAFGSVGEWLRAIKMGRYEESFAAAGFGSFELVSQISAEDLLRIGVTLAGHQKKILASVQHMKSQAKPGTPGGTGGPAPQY
How it was run: as §1

P38-a = P38-a (Homo sapiens, UniProt Q16539); conditions: at 5 um
P38-a, sequence (Q16539 whole entry): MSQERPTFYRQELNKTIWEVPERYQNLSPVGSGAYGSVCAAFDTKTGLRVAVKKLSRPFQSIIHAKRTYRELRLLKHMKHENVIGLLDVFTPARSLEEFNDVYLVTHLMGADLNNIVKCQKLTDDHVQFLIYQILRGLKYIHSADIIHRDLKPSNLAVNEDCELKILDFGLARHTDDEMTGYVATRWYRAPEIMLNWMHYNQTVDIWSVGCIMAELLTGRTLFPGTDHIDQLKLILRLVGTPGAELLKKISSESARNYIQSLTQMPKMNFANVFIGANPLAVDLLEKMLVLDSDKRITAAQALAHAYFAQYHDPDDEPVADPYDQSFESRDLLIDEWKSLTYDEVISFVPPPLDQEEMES
How it was run: as §1

PDGFR-a = PDGFR-a (Homo sapiens, UniProt P16234)
PDGFR-a, sequence (P16234 24-1089, species assumed): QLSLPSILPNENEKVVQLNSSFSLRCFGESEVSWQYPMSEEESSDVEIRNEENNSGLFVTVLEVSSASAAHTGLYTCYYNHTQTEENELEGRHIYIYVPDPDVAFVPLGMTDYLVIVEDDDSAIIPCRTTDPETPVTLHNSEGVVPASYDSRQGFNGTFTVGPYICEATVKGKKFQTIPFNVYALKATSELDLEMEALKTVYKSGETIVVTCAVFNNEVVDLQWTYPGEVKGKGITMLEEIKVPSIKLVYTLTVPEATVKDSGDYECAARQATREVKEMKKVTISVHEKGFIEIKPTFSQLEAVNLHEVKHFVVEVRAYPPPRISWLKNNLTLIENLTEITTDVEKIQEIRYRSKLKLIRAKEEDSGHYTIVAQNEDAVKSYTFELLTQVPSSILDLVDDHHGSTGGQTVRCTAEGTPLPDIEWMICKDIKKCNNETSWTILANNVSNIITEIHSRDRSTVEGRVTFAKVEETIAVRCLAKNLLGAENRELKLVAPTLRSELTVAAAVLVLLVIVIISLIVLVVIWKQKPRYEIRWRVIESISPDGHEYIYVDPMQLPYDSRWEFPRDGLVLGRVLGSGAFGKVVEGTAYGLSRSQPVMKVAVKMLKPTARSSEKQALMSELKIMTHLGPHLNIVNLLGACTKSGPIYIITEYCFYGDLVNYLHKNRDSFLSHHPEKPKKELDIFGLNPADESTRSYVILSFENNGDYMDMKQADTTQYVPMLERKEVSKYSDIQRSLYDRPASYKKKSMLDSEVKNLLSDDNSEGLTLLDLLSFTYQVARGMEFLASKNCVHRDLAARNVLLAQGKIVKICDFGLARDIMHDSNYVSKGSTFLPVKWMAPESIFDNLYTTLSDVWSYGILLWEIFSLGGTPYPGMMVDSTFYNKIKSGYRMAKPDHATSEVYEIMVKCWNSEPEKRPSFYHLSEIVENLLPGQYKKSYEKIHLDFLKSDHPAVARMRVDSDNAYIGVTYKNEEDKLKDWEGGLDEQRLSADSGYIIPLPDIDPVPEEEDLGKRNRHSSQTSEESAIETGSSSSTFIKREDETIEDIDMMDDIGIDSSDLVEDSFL
How it was run: as §1

inhibition of kinase activity, EPH-B2 (EPH-B2) | inhibition at 5 µM (EPH-B4) [%] | inhibition of kinase activity, P38-a (P38-a) | inhibition at 5 µM (PDGFR-a) [%] | Structure (SMILES)
B (B=90%-94% at 5 um) | 80 to 89 | C (C=80%-89% at 5 um) | 50 to 79 | CNC(=O)c1cc(Oc2ccc(NC(=O)c3nc(COC)oc3-c3ccc(F)cc3)cc2F)ccn1 [Compound 30]
D (category D for 50-79) | < 50 | C (C=80%-89% at 5 um) | < 50 | CSc1nc(C(=O)Nc2ccc(Oc3ccnc(C(=O)NC4COC4)c3)c(F)c2)c(-c2ccc(F)cc2)o1 [Compound 31]
D (category D for 50-79) | 50 to 79 | D (category D for 50-79) | < 50 | CNC(=O)c1cc(Oc2ccc(NC(=O)c3nc(OC4CC4)oc3-c3ccc(F)cc3)cc2F)ccn1 [Compound 32]
E (category E is less than 50%) | < 50 | C (C=80%-89% at 5 um) | < 50 | [2H]C([2H])([2H])NC(=O)c1cc(Oc2ccc(NC(=O)c3nc(SC)oc3-c3ccc(F)c(F)c3)cc2F)ccn1 [Compound 33]
C (C=80%-89% at 5 um) | 80 to 89 | C (C=80%-89% at 5 um) | < 50 | CNC(=O)c1cc(Oc2ccc(NC(=O)c3nc(SC(C)C)oc3-c3ccc(F)cc3)cc2F)ccn1 [Compound 34]
D (category D for 50-79) | < 50 | E (category E is less than 50%) | < 50 | [2H]C([2H])([2H])NC(=O)c1cc(Oc2ccc(NC(=O)c3nc(SC)oc3-c3ccc(F)s3)cc2F)ccn1 [Compound 35]
E (category E is less than 50%) | < 50 | E (category E is less than 50%) | < 50 | CNC(=O)c1ccc(Oc2ccc(NC(=O)c3nc(Cl)oc3-c3ccc(F)cc3)c(F)c2)cn1 [Compound 36]
E (category E is less than 50%) | < 50 | C (C=80%-89% at 5 um) | < 50 | CSc1nc(C(=O)Nc2ccc(Oc3ccnc(C(=O)NC4COC4)c3)c(F)c2)c(-c2ccc(F)c(F)c2)o1 [Compound 37]
E (category E is less than 50%) | 50 to 79 | D (category D for 50-79) | < 50 | CNC(=O)c1cc(Oc2ccc(NC(=O)c3nc(OCC(F)(F)F)oc3-c3ccc(F)cc3)cc2F)ccn1 [Compound 38]
E (category E is less than 50%) | < 50 | D (category D for 50-79) | < 50 | COc1nc(C(=O)Nc2ccc(Oc3ccnc(C(=O)NC4COC4)c3)c(F)c2)c(-c2ccc(F)cc2)o1 [Compound 39]
E (category E is less than 50%) | < 50 | D (category D for 50-79) | < 50 | CSc1nc(C(=O)Nc2ccc(Oc3ccnc(C(=O)NCC(F)(F)F)c3)c(F)c2)c(-c2ccc(F)cc2)o1 [Compound 40]
D (category D for 50-79) | < 50 | A (A=95% or greater at 5 um) | < 50 | CSc1nc(C(=O)Nc2ccc(Oc3ccnc(C(=O)NCCN(C)C)c3)c(F)c2)c(-c2ccc(F)cc2)o1 [Compound 41]
E (category E is less than 50%) | < 50 | A (A=95% or greater at 5 um) | < 50 | CSc1nc(C(=O)Nc2ccc(Oc3ccnc(C(=O)NC4CCN(C)CC4)c3)c(F)c2)c(-c2ccc(F)cc2)o1 [Compound 42]
E (category E is less than 50%) | < 50 | E (category E is less than 50%) | < 50 | COc1nc(C(=O)Nc2ccc(Oc3ccnc(C(=O)NCC(F)(F)F)c3)c(F)c2)c(-c2ccc(F)cc2)o1 [Compound 43]

From patent US11629143B2, “HipK4 inhibitors and uses thereof” (Vibliome Therapeutics, LLC, priority 2020, dated 2023)
